The nature of series [1]: Release of model active from glass layers monitored by absorbance at 510 nm. The series is classed as physicochemical. Particulars: aqueous 5% Tween 20, constant agitation. The text has this: Disperse Red 1 was incorporated as a model active in a glass of lactitol nonaacetate (ratio 0.1/100 g/g) by melt mixing. The release of model active from 0.5 mm and 3 mm thickness layers of glass, into either water or an aqueous solution of 5% Tween 20, was monitored by absorbance at 510 nm.

Series [2] in a line: Glass transition temperature (Tg) by differential scanning calorimetry. Particulars: DSC, average of two runs.
From the text: The acetylated polyol was recovered by evaporating off the solvent and the derivative characterized by nuclear magnetic resonance spectroscopy (NMR) and differential scanning calorimetry (DSC).
Tgs were obtained as the average of two runs.

The record followed here is US20020009464A1, “Modified glycosides, compositions comprised thereof and methods of use thereof” (priority 1997, published 2002).

Turning to `CCN(CCO)c1ccc(N=Nc2ccc([N+](=O)[O-])cc2)cc1` [Disperse red 1], the “time to complete release of active” value in series [1] (0.5 mm thickness glass) worked out at 12 h; in series [1] (3 mm thickness glass), 72 h.

“α-D-glucopyranosyl-1→6-mannitol nonaacetate [GPM nonaacetate]” showed a Tg in series [2] of 35 °C.

“α-D-glucopyranosyl-1→6-sorbitol nonaacetate [GPS nonaacetate]” displayed a Tg in series [2] of 17.4 °C.
